The values that follow come from patent publication US20250163076A1, “SYNTHESIS OF BRUTON'S TYROSINE KINASE INHIBITORS” (JANSSEN PHARMACEUTICA NV, priority 2022, published 2025).

Series [1] deals with B-cell activation via B-cell receptor in rat whole blood. Description: Rat whole blood assay, anti-IgD stimulated B-cell activation. Particulars: for IC50: Rattus norvegicus, B-cell, anti-IgD stimulation. The format is cell-based. As for the experimental part: (§1) The activity of Compound M was assessed in rat and human whole blood assays using anti-IgD and anti-IgM stimulation, respectively, to trigger B-cell activation via B-cell receptor.

A further series deals with BTK (Homo sapiens, UniProt Q06187). Description: BTK covalent inhibition kinetics (KI, kinact, kinact/KI). In kind it is biochemical. Particulars: for kinact/KI: read-out: kinact/KI. As for the experimental part:
The development of the structure-activity relationship was conducted by characterizing the non-covalent affinity of each inhibitor for BTK (KI) and the first order rate constant for irreversible covalent bond formation (kinact). The second order rate constant kinact/KI ratio is used to assess the covalent inhibitor potency because it is independent of incubation time and substrate concentrations (Copeland, R. A. Evaluation of Enzyme Inhibitors in Drug Discovery: a Guide for Medicinal Chemists and Pharmacologists; 2nd ed.; Wiley: Hoboken, N.J., 2013).

A short description of series [2]: Aqueous solubility at pH 2 and pH 7. The format is physicochemical. Particulars: for Solubility: Table 5.
The next series in a line: PPB % free, dog. The format is in vitro ADME. Particulars: plasma.
In another series the test system is Mouse CD69 cell. Kind of series: Mouse CD69 splenocyte assay. In kind it is cell-based.
A further series is described as follows: PPB % free, cyno. Particulars: cynomolgus monkey, plasma. In kind it is in vitro ADME.
Another series can be described thus: PPB % free, rat. In kind it is in vitro ADME. Particulars: plasma.
Series [3] concerns anti-IgM induced B cell activation in human whole blood. Kind of series: Human whole blood assay, anti-IgM induced B cell activation. In kind it is cell-based. Particulars: anti-IgM stimulation. As for the experimental part: as §1
Another series can be described thus: PPB % free, human. Particulars: plasma.
A short description of series [4]: Human liver microsomes T1/2. The format is in vitro ADME. Particulars: Table 5. Background: Liver microsomes are vesicles of endoplasmic reticulum, rich in cytochrome P450 enzymes.
Series [5] can be described thus: Rat oral bioavailability (% F). In kind it is in vivo. Particulars: for bioavailability: in vivo, oral.
For series [6] the following is noted: human, plasma.
Series [7] can be described thus: Liver microsomes T1/2 (Table 3). In kind it is in vitro ADME. Particulars: species not given.
Series [8] in a line: Epimerization kinetics / rotational energy barrier of atropisomers in solvents. The format is physicochemical. Particulars: buffer, t1/2 at 100° C.
Assay in series [9]: as above
In kind it is physicochemical. The protocol: The rotational energy barrier of compound of Formula (II) atropisomers was estimated according to the method known in the art. The rotational barrier was determined in several solvents and their aqueous mixtures and the results are reported in Table 13, where an average value of 120.5 kJ mol^−1 or 28.8 kcal mol^−1, corresponding to epimerization half-lives of 63.8 and 4.0 months at 20° C. and 37° C., respectively, were obtained, placing this compound on the top segment of Class 2 atropisomers according to the classification systems known in the art. The rotational barrier is slightly influenced by the solvent and increases in the order 1-butanol<2-butanol<1-propanol<propylene carbonate. Additionally, increasing amounts of water increased substantially the rotational barrier in all solvents with the highest value obtained in 1-propanol/water 33/67 w/w % system. Unfortunately, due to the low aqueous solubility of compound of Formula (II) in water, epimerization studies could not be accurately conducted in pure water.
Enriched compound of Formula (II) of the P isomer was dissolved in the respective solvent to create a concentration of ˜1 wt % and was placed in a standard screw cap vial (1.8 mL) equipped with a magnetic stirring bar. Subsequently, the vial was placed in the heating block of a parallel reactor setup (Crystal16, Technobis B.V.) which was preheated to the desired temperature (80° C.-100° C., depending on the solvent). At given time intervals, small aliquot samples were taken in an HPLC vial, diluted, and the diastereomeric excess of the mixture was determined by an UPLC apparatus, equipped with an Acquity UPLC BEH C18 column (0.6 ml/min, gradient 10 mM ammonium acetate acetonitrile 95-5 v/v % and acetonitrile at 35° C.). The time points and corresponding decay of diastereomeric excess (d.e.) were plotted as t vs ln (1/d.e.) to determine the interconversion rate constant, rotational energy barrier and epimerization half-life at the respective solvent and temperature:
[formula] [formula] [formula] • where [P], [M] are the concentrations of the P and M isomers, respectively, ke is the interconversion rate constant (s^−1), ΔGe^‡ is the rotational energy barrier (KJ mol^−1), T is the absolute temperature, kB, h and R are the Boltzmann, Planck and universal gas constants, respectively and t1/2 is the epimerization half-life. An example of the data treatment and determination procedure for ke is shown in FIG. 9 for propylene carbonate system at 100° C.

The mark [10] stands for this setting: Table 5, average of 2 independent determinations (± SD).
[11] abbreviates: aqueous medium, simulated gastric fluid, pH 2, read-out: Solubility pH 2.

The structures appear in SMILES notation. In brackets after ≈: the same amount, converted by molar mass. Like-named read-outs stand apart in the source and are kept apart here.

BTK, sequence (Q06187 whole entry): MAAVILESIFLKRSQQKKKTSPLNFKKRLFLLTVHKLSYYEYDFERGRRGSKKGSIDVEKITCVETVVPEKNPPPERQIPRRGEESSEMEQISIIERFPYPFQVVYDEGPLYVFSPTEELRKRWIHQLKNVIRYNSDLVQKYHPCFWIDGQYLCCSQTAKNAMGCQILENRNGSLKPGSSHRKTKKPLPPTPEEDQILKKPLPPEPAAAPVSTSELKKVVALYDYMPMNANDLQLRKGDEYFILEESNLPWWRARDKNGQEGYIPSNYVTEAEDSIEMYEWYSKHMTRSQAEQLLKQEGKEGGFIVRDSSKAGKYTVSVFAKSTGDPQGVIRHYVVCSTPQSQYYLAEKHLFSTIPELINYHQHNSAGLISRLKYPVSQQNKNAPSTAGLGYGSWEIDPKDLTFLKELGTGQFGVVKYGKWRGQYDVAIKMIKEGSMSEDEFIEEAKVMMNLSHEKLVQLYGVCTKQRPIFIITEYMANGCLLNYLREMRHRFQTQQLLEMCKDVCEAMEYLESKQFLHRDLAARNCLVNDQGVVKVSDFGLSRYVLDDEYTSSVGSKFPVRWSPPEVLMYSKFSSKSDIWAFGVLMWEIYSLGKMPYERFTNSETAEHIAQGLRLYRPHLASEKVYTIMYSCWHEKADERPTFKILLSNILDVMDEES

`C=CC(=O)N[C@H]1CCC[C@H]1NC(=O)c1sc2nccc3c2c1NC(=O)N3c1cnc(CC(C)C)cc1C` (single isomer, unassigned) [Compound M]: the results for the IC50 (in [1]; with Mouse CD69 cell; in series [3]) were 41 ± 12 nM, 99 ± 68 nM and 89 ± 12 nM, respectively. Also, the “more potent in rat whole blood” value in [1] (compared to Compound A) is listed as 3 fold. At BTK (setting [10]), this compound returned a Ki of 48.5 ± 2.9 nM. The inactivation rate constant (kinact) on BTK (setting [10]) worked out at 0.000348 s⁻¹. Besides, at BTK (Table 5), the kinact/KI stood at 7290 ± 590 M⁻¹ s⁻¹. In addition, the “pH 2 solubility” value in series [2] (Table 6, pH 2) was 320 μM. The “pH 7 solubility” value in series [2] (Table 6, pH 7) is given as 7 μM. The Solubility was 7 µM (≈ 3.63 µg/mL) in [2] (aqueous medium, aqueous buffer, pH 7, read-out: Solubility pH 7) and 320 µM (≈ 166 µg/mL) in series [2] (setting [11]). Further, the unbound share (fraction unbound) was 0.063 in “PPB % free, dog”; 0.032 in the series “PPB % free, cyno”; 0.037 in the series “PPB % free, rat”; 0.031 in the series “PPB % free, human”. The half-life in [4] (human, liver microsomes) stood at 0.0264 days.
For the compound `C=CC(=O)N1CC[C@@H](NC(=O)c2sc3nccc4c3c2NC(=O)N4c2ccc(Oc3ccccc3)cc2C)C1` [Compound A], the IC50 in [1] came to 130 ± 11 nM; in series [3] it was 84 ± 39 nM. The Ki at BTK (Table 3, average of two independent determinations (±SD)) is 28.8 ± 21 nM. The “pH 2 solubility” value in [2] (Table 3, pH 2) is on record as <4/<4 μM; in series [2] (Table 6, pH 2), <4/<4 μM. The “pH 7 solubility” value in series [2] (Table 3, pH 7) was <4/<4 μM; in series [2] (Table 6, pH 7), <4/<4 μM. Moreover, the “Rat % F (1 g/kg, crystalline suspension)” value in series [5] (1 g/kg, crystalline suspension) is listed as less than 1%. For the same compound, the bioavailability in [5] (1 g/kg, crystalline suspension, read-out: Rat % F (1 g/kg, crystalline suspension)) was less than 1%; in series [5] (20% HP-β-CD solution, read-out: Rat % F (20% HP-β-CD solution)) it was 29.7%. In [6], this compound yielded a PPB % free of 0.16%. The “Liver microsomes T1/2” value in series [7] (first of the two values printed 23/40) turned out to be 0.016 days. Besides, the half-life in series [7] (liver microsomes, second of the two values printed 23/40) is 0.0278 days.
As for `C=CC(=O)N[C@H]1CCC[C@H]1NC(=O)c1sc2nccc3c2c1NC(=O)N3c1cnc(CC(C)C)cc1C` [Formula (II), N-((1R,2S)-2-acrylamidocyclopentyl)-5-(6-isobutyl-4-methylpyridin-3-yl)-4-oxo-4,5-dihydro-3H-1-thia-3,5,8-triazaacenaphthylene-2-carboxamide], the half-life in series [8] is 0.0299 days; in series [9] (1-butanol, t1/2 at 20° C.) it was 1100 days; in [9] (1-butanol/water 85/15 w/w %, t1/2 at 20° C.) it was 1460 days; in series [9] (1-propanol, t1/2 at 20° C.), 1460 days; in series [9] (1-propanol/water 33/67 w/w %, t1/2 at 20° C.), 3290 days; in series [9] (1-propanol/water 50/50 w/w %, t1/2 at 20° C.) it was 2560 days. In addition, the half-life is 2190 days in [9] (1-propanol/water 67/33 w/w %, t1/2 at 20° C.); 2190 days in series [9] (1-propanol/water 80/20 w/w %, t1/2 at 20° C.); 1100 days in series [9] (2-MeTHF, t1/2 at 20° C.); 1100 days in [9] (2-butanol, t1/2 at 20° C.); 1830 days in series [9] (2-butanol/water 70/30 w/w %, t1/2 at 20° C.); 1100 days in [9] (3-methyl-1-butanol, t1/2 at 20° C.). Further, the half-life in series [9] (3-methyl-1-butanol/water 91/9 w/w %, t1/2 at 20° C.) was 1460 days; in [9] (Acetonitrile, t1/2 at 20° C.) it was 3650 days; in series [9] (EA, t1/2 at 20° C.) it was 1460 days; in series [9] (EtOH, t1/2 at 20° C.), 2560 days; in [9] (IPA, t1/2 at 20° C.) it was 2190 days; in [9] (IPAC, t1/2 at 20° C.) it was 1830 days. Besides, the half-life in series [9] (MEK, t1/2 at 20° C.) is 1830 days; in series [9] (MIBK, t1/2 at 20° C.), 1100 days; in series [9] (buffer, t1/2 at 85° C.), 0.156 days; in series [9] (buffer, t1/2 at 120° C.), 0.00417 days; in series [9] (propylene carbonate, t1/2 at 20° C.), 2190 days; in series [9] (propylene carbonate/water 93/7 w/w %, t1/2 at 20° C.) it was 2560 days. For the same compound, the ΔG in series [9] (1-butanol) came to 28.49 kcal/mol; in series [9] (1-butanol/water 85/15 w/w %), 28.68 kcal/mol; in series [9] (1-propanol), 28.7 kcal/mol; in [9] (1-propanol/water 33/67 w/w %) it was 29.09 kcal/mol; in [9] (1-propanol/water 50/50 w/w %), 28.97 kcal/mol; in series [9] (1-propanol/water 67/33 w/w %), 28.85 kcal/mol. The ΔG in series [9] (1-propanol/water 80/20 w/w %) turned out to be 28.82 kcal/mol; in series [9] (2-MeTHF) it was 28.54 kcal/mol; in [9] (2-butanol), 28.54 kcal/mol; in series [9] (2-butanol/water 70/30 w/w %), 28.78 kcal/mol; in [9] (3-methyl-1-butanol), 28.39 kcal/mol; in series [9] (3-methyl-1-butanol/water 91/9 w/w %), 28.61 kcal/mol. For the same compound, the ΔG in series [9] (Acetonitrile) stood at 29.16 kcal/mol; in [9] (EA) it was 28.59 kcal/mol; in series [9] (EtOH), 28.99 kcal/mol; in series [9] (IPA), 28.87 kcal/mol; in series [9] (IPAC), 28.73 kcal/mol; in series [9] (MEK) it was 28.8 kcal/mol. In addition, the ΔG in series [9] (MIBK) came out at 28.54 kcal/mol; in series [9] (Propylene carbonate), 28.9 kcal/mol; in [9] (Toluene), 30.02 kcal/mol; in series [9] (propylene carbonate/water 93/7 w/w %), 28.94 kcal/mol.
On to `C=CC(=O)NCCNC(=O)c1sc2nccc3c2c1NC(=O)N3c1cnc(CC(C)C)cc1C` [L], for which, at BTK (setting [10]), the Ki was 2430 nM and the kinact came out at 0.000317 s⁻¹. Besides, on BTK (Table 5), the kinact/KI came out at 131 ± 2 M⁻¹ s⁻¹. Also, the Solubility in series [2] (pH 7, read-out: Solubility pH 7) amounted to 220 µM (≈ 105 µg/mL). Also, the Solubility in series [2] (setting [11]) is greater than 400 µM. For the same compound, in series [4], the “Human liver microsomes T1/2” value worked out at 0.0188 days.

As a reminder, the IC50 is the point on the concentration scale where inhibition reaches its midpoint. By kinact is commonly meant the maximal first-order rate at which the target is inactivated. Usually Solubility stands for the concentration that dissolves in the medium under given conditions. As a reminder, the fraction unbound is free concentration divided by total concentration. Broadly, the half-life is how long it takes for the measured level to halve.
